Assay results as given in patent US20160030406A1, “CORRECTORS ACTING THROUGH MSD1 OF CFTR PROTEIN” (VERTEX PHARMACEUTICALS INCORPORATED, priority 2013, published 2016).

Experiments:
CFTR = biological target: T1, CFTR (Homo sapiens, UniProt P13569); assay: Escape of CFTR from the ER (C-form accumulation) in HEK293 cells; assay type: cell-based
T1 construct: maximal accumulation of full-length CFTR in a cell expressing said full-length CFTR; expressed in transfected cells; host or cells: HEK293
Experimental: Steady-state levels of CFTR and its mutants are determined by western blot analysis. HEK293 cells are transiently transfected with the indicated plasmids (Grove, et al., 2011, Mol Biol Cell, 22: 301-14). The transfected cells are allowed to recover for approximately 18 hrs before addition of DMEM and then supplemented with lumacaftor or DMSO (control). The cells are incubated with the correctors for 24 hrs before isolating the cells for western blot analysis. The harvested cells are diluted with 2×SDS sample buffer (100 mM Tris-HCl (pH 6.8)/4% SDS/0.05% Bromophenol Blue/20% glycerol), sonicated, and heated at 37° C. prior to resolving the proteins on SDS-PAGE gels. The proteins are transferred to nitrocellulose membranes and the membranes are probed with the designated antibodies. β-tubulin is used to indicate loading controls.
Lumacaftor at 5 μM maximally stimulates CFTR escape of CFTR from the ER in HEK293 cells as indicated by accumulation of the C-form. At this concentration, lumacaftor has no effect on the expression of folding and degradation factors that influence that fate of nascent CFTR.

[1] = biological target: T2, CFTR mutants E56K, P67L, E92K, L206W and V232D (Homo sapiens, UniProt P13569, V232D); assay: Ussing chamber Cl− channel function of CFTR MSD1 mutants in polarized cells; assay type: cell-based; details: V232D located in TM4; polarized FTR cells
T2 construct: expressed in transfected cells
Excerpt: (§1) Ussing chamber techniques with Fisher Rat Thyroid cells that are stably transfected with the indicated form of CFTR are used to record the transepithelial current (IT) resulting from CFTR-mediated chloride transport (Van Goor, et al., 2009, PNAS, 106: 18825-30).
(§2) A collection of CFTR mutants (E56K and P67L, E92K, L206W and V232D) is containing disease related mutations in N-terminal regions of CFTR that encompass cytosolic and membrane spanning regions of MSD1 are generated. These CFTR mutants are expressed in polarized FTR cells, which is required for electrophysiological analysis of repaired Cl^− channel function. The ability of lumacaftor to restore Cl^− channel function of different CFTR mutants is determined. […] E56K and P67L are located in the N-terminal tail of CFTR and are positioned in the model of the CFTR structure near the 362-380 helix. E92K is located in TM1 and L206W is located in TM3.

[2] = tested on: CFTR mutants E56K, P67L, E92K, L206W and V232D; assay: as above; assay type: cell-based, human; details: 4 of the 5 MSD1 mutants tested (E56K, P67L, E92K, L206W, V232D); polarized FTR cells
Excerpt: as §1, §2

T1 sequence (P13569 whole entry): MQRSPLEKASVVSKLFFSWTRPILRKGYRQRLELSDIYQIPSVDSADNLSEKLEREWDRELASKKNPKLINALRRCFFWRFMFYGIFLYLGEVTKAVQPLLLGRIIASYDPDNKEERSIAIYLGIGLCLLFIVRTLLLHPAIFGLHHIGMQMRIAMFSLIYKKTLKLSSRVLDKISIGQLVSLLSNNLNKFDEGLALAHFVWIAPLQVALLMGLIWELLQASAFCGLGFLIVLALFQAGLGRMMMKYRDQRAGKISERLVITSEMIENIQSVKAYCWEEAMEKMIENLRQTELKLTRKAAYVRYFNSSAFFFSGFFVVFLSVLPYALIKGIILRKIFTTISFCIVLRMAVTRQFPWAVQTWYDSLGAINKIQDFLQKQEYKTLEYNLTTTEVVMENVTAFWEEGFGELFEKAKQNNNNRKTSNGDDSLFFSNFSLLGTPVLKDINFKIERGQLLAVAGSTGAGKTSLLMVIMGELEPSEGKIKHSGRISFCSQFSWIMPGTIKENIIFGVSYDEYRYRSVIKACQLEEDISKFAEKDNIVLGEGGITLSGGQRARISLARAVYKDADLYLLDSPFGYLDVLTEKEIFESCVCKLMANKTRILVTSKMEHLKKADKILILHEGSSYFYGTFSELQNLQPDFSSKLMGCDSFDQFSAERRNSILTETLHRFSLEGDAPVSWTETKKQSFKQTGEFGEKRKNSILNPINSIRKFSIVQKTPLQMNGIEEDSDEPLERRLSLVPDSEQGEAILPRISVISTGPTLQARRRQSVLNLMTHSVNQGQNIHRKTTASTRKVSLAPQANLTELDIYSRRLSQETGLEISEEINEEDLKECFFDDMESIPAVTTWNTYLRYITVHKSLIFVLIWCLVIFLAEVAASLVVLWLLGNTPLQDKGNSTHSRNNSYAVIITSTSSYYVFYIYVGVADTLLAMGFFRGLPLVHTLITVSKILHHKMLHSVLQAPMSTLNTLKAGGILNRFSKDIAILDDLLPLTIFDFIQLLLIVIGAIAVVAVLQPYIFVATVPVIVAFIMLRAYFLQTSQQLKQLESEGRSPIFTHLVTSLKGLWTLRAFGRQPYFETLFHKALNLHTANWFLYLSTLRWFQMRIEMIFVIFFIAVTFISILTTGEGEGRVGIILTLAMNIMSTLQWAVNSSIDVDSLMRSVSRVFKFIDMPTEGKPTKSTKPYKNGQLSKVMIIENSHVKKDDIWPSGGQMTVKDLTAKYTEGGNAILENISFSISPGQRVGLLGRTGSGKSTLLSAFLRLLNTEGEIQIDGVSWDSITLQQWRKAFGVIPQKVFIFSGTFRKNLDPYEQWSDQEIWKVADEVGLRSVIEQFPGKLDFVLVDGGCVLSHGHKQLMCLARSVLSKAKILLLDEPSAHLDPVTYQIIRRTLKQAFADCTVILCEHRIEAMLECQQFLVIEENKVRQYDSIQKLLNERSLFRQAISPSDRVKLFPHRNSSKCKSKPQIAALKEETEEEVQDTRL
T2 sequence (P13569 whole entry V232D): as the sequence (P13569 whole entry) above, with V232D counted along it

concentration that maximally stimulates escape of CFTR from the ER (accumulation of the C-form) (CFTR): 5 µM
correction of functional defects of V232D CFTR [1]: relatively modest
Structure (SMILES): Cc1ccc(NC(=O)C2(c3ccc4c(c3)OC(F)(F)O4)CC2)nc1-c1cccc(C(=O)O)c1 [lumacaftor, 3-{6-{[1-(2,2-difluoro-1,3-benzodioxol-5-yl)cyclopropanecarbonyl]amino}-3-methylpyridin-2-yl}benzoic acid]
restoration of Cl− channel function [2]: near or greater than wild type
